# Results from US10414811B2, “Protease-resistant lipidated GLP-1 analogs” (MEDIMMUNE LIMITED, priority 2015, dated 2019).
# Where two headings read alike, the source gives them in different places.
# Assays:
# Assay type in all cases: cell-based
# [1] = target: T1, human GLP-1 receptor (GLP-1R) (Homo sapiens, UniProt P43220); experiment: cAMP assay, human GLP-1R cells
# T1 construct: expressed in transfected cells
# Method in brief: (§1)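 Peptide-stimulated cAMP measured by two-step HTRF after a 30 min room-temperature incubation with receptor-expressing cells (hGLP-1R, hGIPR at 1×10^5 cells/ml; hGCGR at 2×10^5 cells/ml). Duplicate dilutions; EC50 from 4-parameter logistic fit of % Delta F.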
# [2] = target: T2, human glucose-dependent insulinotropic peptide receptor (GIPR) (Homo sapiens, UniProt P48546); experiment: cAMP assay, human GIPR cells; settings: cAMP assay
# T2 construct: expressed in transfected cells
# T2 sequence (P48546 22-466): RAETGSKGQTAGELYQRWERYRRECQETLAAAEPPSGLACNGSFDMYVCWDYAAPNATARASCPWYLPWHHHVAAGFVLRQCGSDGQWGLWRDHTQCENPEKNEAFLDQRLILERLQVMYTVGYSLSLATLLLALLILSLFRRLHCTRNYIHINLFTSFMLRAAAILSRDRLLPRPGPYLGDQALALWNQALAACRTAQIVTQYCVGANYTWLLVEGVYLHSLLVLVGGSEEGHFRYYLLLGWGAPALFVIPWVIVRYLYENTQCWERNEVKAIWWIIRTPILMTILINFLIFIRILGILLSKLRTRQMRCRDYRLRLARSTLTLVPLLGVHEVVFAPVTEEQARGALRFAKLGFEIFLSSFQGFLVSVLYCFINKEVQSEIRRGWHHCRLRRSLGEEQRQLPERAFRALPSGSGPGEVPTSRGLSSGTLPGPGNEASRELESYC
# Method in brief: as §1
# [3] = target: T3, human glucagon receptor (GCGR) (Homo sapiens, UniProt P47871); experiment: cAMP assay, human GCGR cells; settings: cAMP assay
# T3 construct: expressed in transfected cells
# Method in brief: as §1
# [4] = cAMP assay, first determination (n1), read-out: Primary assay EC50 GLP-1R n1
# [5] = cAMP assay, second determination (n2), read-out: Primary assay EC50 GLP-1R n2
# [6] = mean of n1 and n2, read-out: Mean pM GLP-1R
# [7] = Primary assay EC50 GIP-R (n1), first determination (n1)
# [8] = read-out: Primary assay EC50 GIP-R (n2), second determination (n2)
# [9] = Primary assay EC50 Gluc-R (n1), first determination (n1)
# [10] = read-out: Primary assay EC50 Gluc-R (n2), second determination (n2)
# [11] = first determination (n1), read-out: Primary assay EC50 GIP-R (n1)
# [12] = second determination (n2), read-out: Primary assay EC50 GIP-R (n2)
# [13] = first determination (n1), read-out: Primary assay EC50 Gluc-R (n1)
# [14] = second determination (n2), read-out: Primary assay EC50 Gluc-R (n2)
# T1 sequence (P43220 24-463): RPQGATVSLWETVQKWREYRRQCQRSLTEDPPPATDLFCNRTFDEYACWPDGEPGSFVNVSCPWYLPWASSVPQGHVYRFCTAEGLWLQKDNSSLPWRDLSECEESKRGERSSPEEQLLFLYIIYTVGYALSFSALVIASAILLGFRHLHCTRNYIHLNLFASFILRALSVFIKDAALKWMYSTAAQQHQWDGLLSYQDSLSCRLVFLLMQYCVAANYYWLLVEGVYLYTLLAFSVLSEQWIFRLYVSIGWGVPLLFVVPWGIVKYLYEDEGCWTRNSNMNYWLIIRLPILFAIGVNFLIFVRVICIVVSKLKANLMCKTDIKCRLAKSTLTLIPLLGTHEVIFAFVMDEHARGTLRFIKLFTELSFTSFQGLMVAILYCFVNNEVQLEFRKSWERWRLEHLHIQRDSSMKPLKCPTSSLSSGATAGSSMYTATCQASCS
# T3 sequence (P47871 26-477): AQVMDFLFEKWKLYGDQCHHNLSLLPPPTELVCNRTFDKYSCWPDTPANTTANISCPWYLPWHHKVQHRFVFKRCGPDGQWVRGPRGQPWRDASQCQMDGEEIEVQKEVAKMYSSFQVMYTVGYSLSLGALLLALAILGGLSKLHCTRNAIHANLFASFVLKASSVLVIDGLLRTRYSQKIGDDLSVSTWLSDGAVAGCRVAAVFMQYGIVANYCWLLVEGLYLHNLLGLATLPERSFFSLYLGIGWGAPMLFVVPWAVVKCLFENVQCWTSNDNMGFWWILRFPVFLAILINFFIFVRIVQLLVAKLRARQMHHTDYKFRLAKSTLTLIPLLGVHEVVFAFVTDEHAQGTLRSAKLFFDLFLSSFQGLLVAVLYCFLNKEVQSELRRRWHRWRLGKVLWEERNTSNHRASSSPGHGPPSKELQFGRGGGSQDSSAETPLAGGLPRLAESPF
SMILES,"EC50 [1, 4] [pM]","EC50 [1, 5] [pM]","EC50 [1, 6] [pM]","EC50 [2, 7] [nM]","EC50 [2, 8] [nM]","EC50 [3, 9] [nM]","EC50 [3, 10] [nM]","EC50 [2, 11] [nM]","EC50 [2, 12] [nM]","EC50 [3, 13] [nM]","EC50 [3, 14] [nM]"
CC[C@H](C)[C@H](NC(=O)[C@](C)(Cc1ccccc1)NC(=O)[C@H](CCC(=O)O)NC(=O)[C@H](CCCCNC(=O)CC[C@H](NC(=O)CC[C@H](NC(=O)CC[C@H](NC(=O)CCCCCCCCCCCOc1ccc(C(=O)O)cc1)C(=O)O)C(=O)O)C(=O)O)NC(=O)[C@H](C)NC(=O)[C@H](C)NC(=O)[C@H](CCC(=O)O)NC(=O)CNC(=O)[C@H](CCC(=O)O)NC(=O)[C@H](CC(C)C)NC(=O)[C@](C)(Cc1ccccc1)NC(=O)[C@H](CO)NC(=O)[C@](C)(CO)NC(=O)[C@@H](NC(=O)[C@H](CC(=O)O)NC(=O)[C@H](CO)NC(=O)[C@@H](NC(=O)[C@](C)(Cc1ccccc1)NC(=O)[C@H](CO)NC(=O)CNC(=O)[C@H](CCC(=O)O)NC(=O)C(C)(C)NC(=O)[C@@H](N)Cc1c[nH]cn1)[C@@H](C)O)C(C)C)C(=O)N[C@@H](C)C(=O)N[C@@](C)(Cc1ccccc1)C(=O)N[C@H](C(=O)N[C@H](C(=O)N[C@@](C)(CCCCN)C(=O)NCC(=O)NCC(N)=O)C(C)C)C(C)C [compound 139],29,22,25.5,≥ 26,≥ 26,≥ 26,≥ 26,–,–,–,–
CC[C@H](C)[C@H](NC(=O)[C@](C)(Cc1ccccc1)NC(=O)[C@H](CCC(=O)O)NC(=O)[C@H](CCCCNC(=O)CCCCCNC(=O)CCCCCNC(=O)CCCCCNC(=O)CCCCCCCCCCCOc1ccc(C(=O)O)cc1)NC(=O)[C@H](C)NC(=O)[C@H](C)NC(=O)[C@H](CCC(=O)O)NC(=O)CNC(=O)[C@H](CCC(=O)O)NC(=O)[C@H](CC(C)C)NC(=O)[C@](C)(Cc1ccccc1)NC(=O)[C@H](CO)NC(=O)[C@](C)(CO)NC(=O)[C@@H](NC(=O)[C@H](CC(=O)O)NC(=O)[C@H](CO)NC(=O)[C@@H](NC(=O)[C@](C)(Cc1ccccc1)NC(=O)[C@H](CO)NC(=O)CNC(=O)[C@H](CCC(=O)O)NC(=O)C(C)(C)NC(=O)[C@@H](N)Cc1c[nH]cn1)[C@@H](C)O)C(C)C)C(=O)N[C@@H](C)C(=O)N[C@@](C)(Cc1ccccc1)C(=O)N[C@H](C(=O)N[C@H](C(=O)N[C@@](C)(CCCCN)C(=O)NCC(=O)NCC(N)=O)C(C)C)C(C)C [compound 142],12,7.9,10.1,≥ 26,≥ 26,≥ 26,≥ 26,–,–,–,–
CC[C@H](C)[C@H](NC(=O)[C@](C)(Cc1ccccc1)NC(=O)[C@H](CCC(=O)O)NC(=O)[C@H](CCCCNC(=O)COCCOCCNC(=O)COCCOCCNC(=O)CCCCCCCCCCCOc1ccc(C(=O)O)cc1)NC(=O)[C@H](C)NC(=O)[C@H](C)NC(=O)[C@H](CCC(=O)O)NC(=O)CNC(=O)[C@H](CCC(=O)O)NC(=O)[C@H](CC(C)C)NC(=O)[C@](C)(Cc1ccccc1)NC(=O)[C@H](CO)NC(=O)[C@](C)(CO)NC(=O)[C@@H](NC(=O)[C@H](CC(=O)O)NC(=O)[C@H](CO)NC(=O)[C@@H](NC(=O)[C@](C)(Cc1ccccc1)NC(=O)[C@H](CO)NC(=O)CNC(=O)[C@H](CCC(=O)O)NC(=O)C(C)(C)NC(=O)[C@@H](N)Cc1c[nH]cn1)[C@@H](C)O)C(C)C)C(=O)N[C@@H](C)C(=O)N[C@@](C)(Cc1ccccc1)C(=O)N[C@H](C(=O)N[C@H](C(=O)N[C@@](C)(CCCCN)C(=O)NCC(=O)NCC(N)=O)C(C)C)C(C)C [compound 144],16,9.6,12.6,≥ 26,≥ 26,≥ 26,≥ 26,–,–,–,–
CC[C@H](C)[C@H](NC(=O)[C@](C)(Cc1ccccc1)NC(=O)[C@H](CCC(=O)O)NC(=O)[C@H](CCCCNC(=O)COCCOCCNC(=O)COCCOCCNC(=O)COCCOCCNC(=O)CCCCCCCCCCCOc1ccc(C(=O)O)cc1)NC(=O)[C@H](C)NC(=O)[C@H](C)NC(=O)[C@H](CCC(=O)O)NC(=O)CNC(=O)[C@H](CCC(=O)O)NC(=O)[C@H](CC(C)C)NC(=O)[C@](C)(Cc1ccccc1)NC(=O)[C@H](CO)NC(=O)[C@](C)(CO)NC(=O)[C@@H](NC(=O)[C@H](CC(=O)O)NC(=O)[C@H](CO)NC(=O)[C@@H](NC(=O)[C@](C)(Cc1ccccc1)NC(=O)[C@H](CO)NC(=O)CNC(=O)[C@H](CCC(=O)O)NC(=O)C(C)(C)NC(=O)[C@@H](N)Cc1c[nH]cn1)[C@@H](C)O)C(C)C)C(=O)N[C@@H](C)C(=O)N[C@@](C)(Cc1ccccc1)C(=O)N[C@H](C(=O)N[C@H](C(=O)N[C@@](C)(CCCCN)C(=O)NCC(=O)NCC(N)=O)C(C)C)C(C)C [compound 145],27,15,21,≥ 25,≥ 25,≥ 25,≥ 25,–,–,–,–
CCCCCCCCCCCCCCCCCC(=O)N[C@@H](CCC(=O)NCCCC[C@H](NC(=O)[C@H](C)NC(=O)[C@H](C)NC(=O)[C@H](CCC(=O)O)NC(=O)CNC(=O)[C@H](CCC(=O)O)NC(=O)[C@H](CC(C)C)NC(=O)[C@](C)(Cc1ccccc1)NC(=O)[C@H](CO)NC(=O)[C@](C)(CO)NC(=O)[C@@H](NC(=O)[C@H](CC(=O)O)NC(=O)[C@H](CO)NC(=O)[C@@H](NC(=O)[C@](C)(Cc1ccccc1)NC(=O)[C@H](CO)NC(=O)CNC(=O)[C@H](CCC(=O)O)NC(=O)C(C)(C)NC(=O)[C@@H](N)Cc1c[nH]cn1)[C@@H](C)O)C(C)C)C(=O)N[C@@H](CCC(=O)O)C(=O)N[C@@](C)(Cc1ccccc1)C(=O)N[C@H](C(=O)N[C@@H](C)C(=O)N[C@@](C)(Cc1ccccc1)C(=O)N[C@H](C(=O)N[C@H](C(=O)N[C@@](C)(CCCCN)C(=O)NCC(=O)NCC(N)=O)C(C)C)C(C)C)[C@@H](C)CC)C(=O)O [compound 146],96,42,69,–,–,–,–,≥ 28,≥ 28,≥ 28,≥ 28
CCCCCCCCCCCCCCCCCC(=O)N[C@@H](CCC(=O)N[C@@H](CCC(=O)NCCCC[C@H](NC(=O)[C@H](C)NC(=O)[C@H](C)NC(=O)[C@H](CCC(=O)O)NC(=O)CNC(=O)[C@H](CCC(=O)O)NC(=O)[C@H](CC(C)C)NC(=O)[C@](C)(Cc1ccccc1)NC(=O)[C@H](CO)NC(=O)[C@](C)(CO)NC(=O)[C@@H](NC(=O)[C@H](CC(=O)O)NC(=O)[C@H](CO)NC(=O)[C@@H](NC(=O)[C@](C)(Cc1ccccc1)NC(=O)[C@H](CO)NC(=O)CNC(=O)[C@H](CCC(=O)O)NC(=O)C(C)(C)NC(=O)[C@@H](N)Cc1c[nH]cn1)[C@@H](C)O)C(C)C)C(=O)N[C@@H](CCC(=O)O)C(=O)N[C@@](C)(Cc1ccccc1)C(=O)N[C@H](C(=O)N[C@@H](C)C(=O)N[C@@](C)(Cc1ccccc1)C(=O)N[C@H](C(=O)N[C@H](C(=O)N[C@@](C)(CCCCN)C(=O)NCC(=O)NCC(N)=O)C(C)C)C(C)C)[C@@H](C)CC)C(=O)O)C(=O)O [compound 147],32,14,23.2,–,–,–,–,≥ 27,≥ 27,≥ 27,≥ 27
CCCCCCCCCCCCCCCCCC(=O)N[C@@H](CCC(=O)N[C@@H](CCC(=O)N[C@@H](CCC(=O)NCCCC[C@H](NC(=O)[C@H](C)NC(=O)[C@H](C)NC(=O)[C@H](CCC(=O)O)NC(=O)CNC(=O)[C@H](CCC(=O)O)NC(=O)[C@H](CC(C)C)NC(=O)[C@](C)(Cc1ccccc1)NC(=O)[C@H](CO)NC(=O)[C@](C)(CO)NC(=O)[C@@H](NC(=O)[C@H](CC(=O)O)NC(=O)[C@H](CO)NC(=O)[C@@H](NC(=O)[C@](C)(Cc1ccccc1)NC(=O)[C@H](CO)NC(=O)CNC(=O)[C@H](CCC(=O)O)NC(=O)C(C)(C)NC(=O)[C@@H](N)Cc1c[nH]cn1)[C@@H](C)O)C(C)C)C(=O)N[C@@H](CCC(=O)O)C(=O)N[C@@](C)(Cc1ccccc1)C(=O)N[C@H](C(=O)N[C@@H](C)C(=O)N[C@@](C)(Cc1ccccc1)C(=O)N[C@H](C(=O)N[C@H](C(=O)N[C@@](C)(CCCCN)C(=O)NCC(=O)NCC(N)=O)C(C)C)C(C)C)[C@@H](C)CC)C(=O)O)C(=O)O)C(=O)O [compound 148],16,8.7,12.1,–,–,–,–,≥ 26,≥ 26,≥ 26,≥ 26
